This is an account of results in patent US8183270B2, “Insecticidal N-substituted (2-substituted-1,3-thiazol)alkyl sulfoximines” (Dow AgroSciences, LLC, priority 2006, dated 2012).

As usually defined, the melting point is the temperature, or range, at which the solid turns liquid.

The subject of data set [1] is cotton aphid (Aphis gossypii). Nature of the data set: Insecticidal test for cotton aphid in foliar spray assay. Format: in vivo. The conditions noted are these: foliar spray on squash cotyledons, 3 days after treatment, Corrected % Control (Abbott). The protocol:
The compounds identified in the foregoing examples (compounds 1-5) and in Table 1 (compounds 6-18) were tested against cotton aphid using procedures described hereinafter. Insecticidal Test for Cotton Aphid (Aphis gossypii) in Foliar Spray Assay Squash with fully expanded cotyledon leaves were trimmed to one cotyledon per plant and infested with cotton aphid (wingless adult and nymph) 1 day prior to chemical application. Each plant was examined before chemical application to ensure proper infestation (ca. 30-70 aphids per plant). Compounds (2 mg) were dissolved in 2 ml of acetone:methanol (1:1) solvent, forming stock solutions of 1000 ppm. The stock solutions were diluted 5× with 0.025% Tween 20 in H2O to obtain the highest test solution at 200 ppm. A lower test concentration (50 ppm) was prepared by making sequential a 4× dilution from the 200 ppm solution with a diluent consisting 80 parts of 0.025% Tween 20 in H2O and 20 parts of acetone:methanol (1:1). A hand-held Devilbiss sprayer was used to apply the spray solutions until runoff to both sides of the squash cotyledon leaves. Four plants (4 replications) were used for each concentration of each compound. Reference plants (solvent check) were sprayed with the diluent only. Treated plants were held in a holding room for 3 days at approximately 23° C. and 40% RH before the number of live aphids on each plant was recorded. Insecticidal activity was measured by Corrected % Control using Abbott's correction formula and the values for the lower test concentrations are presented in Table 1: Corrected % Control=100*(X−Y)/X • where X=No. of live aphids on solvent check plants • Y=No. of live aphids on treated plants CA 200 refers to % control at 200 ppm against cotton aphid in foliar spray tests, CA 50 refers to % control at 50 ppm against cotton aphid in foliar spray tests, In each case of Table 2 the rating scale is as follows: […]

`CS(=O)(Cc1cnc(C(F)(F)F)s1)=NC#N` (stereo not drawn) [Compound 1, Methyl(oxido){[2-(trifluoromethyl)-1,3-thiazol-5-yl]methyl}-λ^4-sulfanylidenecyanamide] returned a melting point of 123 to 124 °C. Further, in data set [1], the “CA 50 (% control at 50 ppm against cotton aphid in foliar spray tests)” value is “A (90-100)” and the “CA 200 (% control at 200 ppm against cotton aphid in foliar spray tests)” value is reported as “A (90-100)”.
Turning to `CC(C)(c1cnc(C(F)(F)F)s1)S(C)(=O)=NC#N` (stereo not drawn) [Compound 2, Methyl(oxido){1-methyl-1-[2-(trifluoromethyl)-1,3-thiazol-5-yl]ethyl}-λ^4-sulfanylidenecyanamide], in data set [1], the “CA 50 (% control at 50 ppm against cotton aphid in foliar spray tests)” value is reported as “C (70-79)” and the “CA 200 (% control at 200 ppm against cotton aphid in foliar spray tests)” value is recorded as “A (90-100)”.
Take `CC(c1cnc(C(F)(F)F)s1)S(C)(=O)=NC#N` (stereo not drawn) [Compound 3, Methyl(oxido){1-[2-(trifluoromethyl)-1,3-thiazol-5-yl]ethyl}-λ^4-sulfanylidenecyanamide]: in data set [1], the “CA 50 (% control at 50 ppm against cotton aphid in foliar spray tests)” value is “A (90-100)” and the “CA 200 (% control at 200 ppm against cotton aphid in foliar spray tests)” value was “A (90-100)”.
As to `N#CN=S1(=O)CCCC1Cc1cnc(C(F)(F)F)s1` (stereo not drawn) [Compound 4, 1-Oxo-2-(2-trifluoromethyl-thiazol-5-ylmethyl)-tetrahydro-1-λ^6-thiophen-1-ylidene-cyanamide], in data set [1], the “CA 50 (% control at 50 ppm against cotton aphid in foliar spray tests)” value is recorded as “A (90-100)” and the “CA 200 (% control at 200 ppm against cotton aphid in foliar spray tests)” value is “A (90-100)”.
`CS(=O)(Cc1csc(C(F)(F)F)n1)=NC#N` (stereo not drawn) [Compound 5, Methyl(oxido){[2-(trifluoromethyl)-1,3-thiazol-4-yl]methyl}-λ^4-sulfanylidenecyanamide]: the melting point fell in the range of 66 to 68 °C. In data set [1], the “CA 50 (% control at 50 ppm against cotton aphid in foliar spray tests)” value is reported as “E (50-59)” and the “CA 200 (% control at 200 ppm against cotton aphid in foliar spray tests)” value is “C (70-79)”.
